Assays:
[1] = system: PINCO transfected Ba/F3 cells; assay: XTT cell viability, Ba/F3 transduced with empty vector (PINCO); assay type: cell-based, murine; details: increasing concentration up to 10 μM
Protocol: • 1. Ba/F3 cells were obtained from the German Collection of Microorganisms and Cell Cultures (DSMZ, Braunschweig, Germany) and maintained in RPMI 1640 medium supplemented with 10% fetal calf serum (Invitrogen) containing 10 ng/ml of interleukin-3 (Cell Concepts, Umkirch, Germany). Ecotropic Phoenix cells and Rat-1 cells were cultured in Dulbecco's modified Eagle's medium supplemented with 10% fetal calf serum. GNF-2 (Sigma-Adrich, Steinheim, Germany) was dissolved in dimethyl sulfoxide and added at a final concentration of […]. Cell growth was assessed by dye exclusion using Trypan blue. Proliferation was assessed using the XTT proliferation kit (Roche, Mannheim, Germany), according to the manufacturer's instructions. • 2. Ba/F3: IL-3 dependent lymphatic murine pro B cell line. Ba/F3 cells expressing either p185-BCR-ABL1 (p185-BCR-ABL-Ba/F3) or p210-BCR-ABL (p210-BCR-ABL-Ba/F3). p185-BCR-ABL1 (activated kinases substitute for the IL-3 signaling and therefore render the cells IL3 independent. Ba/F3 cells expressing either p185-BCR-ABL (p185-Ba/F3) or p210-BCR-ABL (p210-Ba/F3). Ba/F3 cells obtained from the German Collection of Microorganisms and Cell Cultures (DSMZ, Braunschweig, Germany). • 3. Mutant transduced Ba/F3 cells (T315I-p185-BCR-ABL1 or T315I-p210-BCR-ABL1): Ba/F3 cells expressing either the mutated forms T315I-p185-BCR-ABL1 or T315I-p210-BCR-ABL1. • 4. WT-Sup-B15: A Ph+ ALL cell line harboring the p185-BCR-ABL. Sup-B15: established from the bone marrow of a child with acute lymphoblastic leukemia (B cell precursor ALL) in second relapse in 1984; described in the literature to carry the ALL-variant (m-BCR) of the BCR-ABL1 fusion gene (e1-a2) correct, because it results in the p185-BCR-ABL version. • 5. […]
FIG. 11: Antiproliferative effect of Compound 16 on PINCO transfected Ba/F3 cells. […] Proliferation status was determined by the metabolic activity of cells given by the reduction rate of XTT to formazan. […]

[2] = system: Sup-B15 (p185-BCR-ABL); assay: XTT cell viability, Sup-B15 (WT-Sup-B15); assay type: cell-based, human
Protocol: • 1. Ba/F3 cells were obtained from the German Collection of Microorganisms and Cell Cultures (DSMZ, Braunschweig, Germany) and maintained in RPMI 1640 medium supplemented with 10% fetal calf serum (Invitrogen) containing 10 ng/ml of interleukin-3 (Cell Concepts, Umkirch, Germany). Ecotropic Phoenix cells and Rat-1 cells were cultured in Dulbecco's modified Eagle's medium supplemented with 10% fetal calf serum. GNF-2 (Sigma-Adrich, Steinheim, Germany) was dissolved in dimethyl sulfoxide and added at a final concentration of […]. Cell growth was assessed by dye exclusion using Trypan blue. Proliferation was assessed using the XTT proliferation kit (Roche, Mannheim, Germany), according to the manufacturer's instructions. • 2. Ba/F3: IL-3 dependent lymphatic murine pro B cell line. Ba/F3 cells expressing either p185-BCR-ABL1 (p185-BCR-ABL-Ba/F3) or p210-BCR-ABL (p210-BCR-ABL-Ba/F3). p185-BCR-ABL1 (activated kinases substitute for the IL-3 signaling and therefore render the cells IL3 independent. Ba/F3 cells expressing either p185-BCR-ABL (p185-Ba/F3) or p210-BCR-ABL (p210-Ba/F3). Ba/F3 cells obtained from the German Collection of Microorganisms and Cell Cultures (DSMZ, Braunschweig, Germany). • 3. Mutant transduced Ba/F3 cells (T315I-p185-BCR-ABL1 or T315I-p210-BCR-ABL1): Ba/F3 cells expressing either the mutated forms T315I-p185-BCR-ABL1 or T315I-p210-BCR-ABL1. • 4. WT-Sup-B15: A Ph+ ALL cell line harboring the p185-BCR-ABL. Sup-B15: established from the bone marrow of a child with acute lymphoblastic leukemia (B cell precursor ALL) in second relapse in 1984; described in the literature to carry the ALL-variant (m-BCR) of the BCR-ABL1 fusion gene (e1-a2) correct, because it results in the p185-BCR-ABL version. • 5. […] V617FJAK2 HEL: (Human erythroleukemia) is a growth factor independent erythroleukemic cell line established from the bone marrow of a patient with relapsed Hodgkin disease after autologous bone marrow transplantation (Martin P & Papayannopoulou T: Science 1982; 216:1233-1235). HEL cells display a block in differentiation at the level of common erythroid-megakaryocytic progenitor and have been commonly used as a model to study erythroid and megakaryocytic differentiation. • 7. Jurkat: an immortalized human T lymphocyte first derived from the peripheral blood of a child suffering from T cell leukemia. Jurkat cells are used to study acute T cell leukemia, T cell signaling, and the expression of various chemokine receptors susceptible to viral entry, particularly HIV.
(§1) FIG. 2: Effect of Compound 16 on leukemia cell lines (Jurkat, Sup-B15 and BV173). Cell viablility (CV) was determined following incubation of the 1 m cells/ml of each cell line with increasing concentration of the Compound 16 [empty vehicle (0.0 μM+IL3), 2.5, 5.0 and 10.0 μM]. CV was measured by the XTT method. The means±SD of triplicates from one representative experiment out of three performed are given.

[3] = system: BV173 cells (p210-BCR-ABL); assay: XTT cell viability, BV173; assay type: cell-based, human
Protocol: as §1
Effect of Compound 16 on […] Jurkat (immortalized T lymphocytes derived from the peripheral blood of a child suffering from leukemia. Jurkat cells are often used to study acute T cell leukemia, T cell signaling, and the expression of various chemokine receptors in this experiment Jurkat cells are taken as control), Sup-B15 and BV173. Three Ph+ cells were used to assess the effect of Compound 16. Relevant concentration of the compound was added to seeded cells at day 1 (24 hrs) and cytotoxicity and proliferation were assessed at after 24, 48, 72, 96 and 120 h by XTT. The control was cells exposed to empty vehicle (0 μM, green line in each case), 1, 2 and 5 μM concentration of Compound 16 were administered to the three cell lines. […] The means±SD of triplicates from one representative experiment out of three performed are given. It could be concluded that though Compound 16 inhibits Ph+ Sup-B15 and BV173 are responsive towards Compound 16 with the notion that p210-BCR-ABL leukemia cells at lymphoblastic blast crisis stage are quite more sensitive than p185-BCR-ABL ALL cells at corresponding inhibitor concentration.
FIG. 6: Sensitivity of Sup-B15 (p185-BCR-ABL) compared BV173 cells (p210-BCR-ABL) towards increasing concentration of Compound 16. Ph+ cells were used to assess the effect of Compound 16. To assess the antiproliferative effect, cells were incubated with increasing concentration [0, 2, 4, 6, 8, and 10 μM] of Compound 16 and the viability was assessed using XTT. The means±SD of triplicates from one representative experiment out of three performed are given.

[4] = system: PH (Ph+ AKI sensitive culture); assay: Proliferation by dye exclusion after three days, PH; assay type: cell-based, human
Protocol: (§2) FIG. 3. […] Cells were exposed to increasing concentration of 2.5, 5 and 10 μM of Compound 16. The negative control cell lines Ph− ALL HP was irresponsive to increasing concentration of Compound 16 (up to 10 μM). […] All four cell lines were plated in duplicates at the indicated concentrations, and proliferation was assessed after three days by dye exclusion of viable cells. […] The sensitivity of Ph+ cells to Compound 16 underlines the involvement of BCR-ABL in the antiproliferative mechanism. Death induction of BV173 cells is well taken as an indication of the ability of such group of compounds to overcome resistance that is originated in non-mutational grounds. However, the ability overcome the resistant T315I-BCR-ABL mutant, as shown in the dose-dependent manner of KÖ (circles), might be indicative for a non-ATP competitive mechanism of action.

[5] = system: BV173; assay: Proliferation by dye exclusion after three days, BV173; assay type: cell-based, human
Protocol: as §2

COc1ccc(C(=O)N2CCN(c3cc(Nc4ccc(OC(F)(F)F)cc4)ncn3)CC2)cc1OC [Compound 16]
antiproliferative response (in words) [1]: No effect
cells inhibited ([2]; 10 μM): around 69%
IC50 ([2]; Sup-B15, XTT, estimated): ~4500 nM
antiproliferative response (in words) ([2]; Sup-B15 / WT-Sup-B15, increasing concentration up to 10 μM): potently inhibited the proliferation
cells wiped ([3]; 2.5 μM): around 100%
IC50 ([3]; BV173, XTT, estimated): ~2000 nM
antiproliferative response (in words) ([3]; BV173, increasing concentration up to 10 μM): most sensitive
concentration sufficient to block proliferation ([3]; within 24 hours exposure): 1 µM
IC50 [4]: ~2100 nM
IC50 [5]: 2500 nM

Reference: US20250228851A1, “ALLOSTERIC INHIBITOR COMPOUNDS FOR OVERCOMING CANCER RESISTANCE” (priority 2021, published 2025)
